Data reported in PubChem BioAssay AID2060888 (Molecular Pharmacology Branch, DTP, NCI, 2025).

System: 695427-040-R-J1-PDC complex spheroid viability
Experiment: Anticancer human tumor 695427-040-R-J1-PDC patient-derived colon adenocarcinoma cell line growth inhibition [RAS]
Conditions: for IC50: curve of first compound; for viability, T/C: stronger effect = lower value
How it was run: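 Tumour cells grown as complex spheroids with HUVEC endothelial cells and mesenchymal stem cells, treated with RAS pathway inhibitor combinations. Each agent spans half-log steps from near clinical Cmax, or 10 microM where Cmax is unknown.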

[1] = second compound 0.00316 µM, first compound 0.0316 µM
[2] = second compound 0.00316 µM, first compound 0.1 µM
[3] = second compound 0.00316 µM, first compound 0.316 µM
[4] = second compound 0.00316 µM, first compound 1 µM
[5] = second compound 0.00316 µM, first compound 3.16 µM
[6] = second compound 0.00316 µM, first compound 10 µM
[7] = second compound 0.01 µM, first compound 0.0316 µM
[8] = second compound 0.01 µM, first compound 0.1 µM
[9] = second compound 0.01 µM, first compound 0.316 µM
[10] = second compound 0.01 µM, first compound 1 µM
[11] = second compound 0.01 µM, first compound 3.16 µM
[12] = second compound 0.01 µM, first compound 10 µM
[13] = second compound 0.0316 µM, first compound 0.0316 µM
[14] = second compound 0.0316 µM, first compound 0.1 µM
[15] = second compound 0.0316 µM, first compound 0.316 µM
[16] = second compound 0.0316 µM, first compound 1 µM
[17] = second compound 0.0316 µM, first compound 3.16 µM
[18] = second compound 0.0316 µM, first compound 10 µM
[19] = second compound 0.1 µM, first compound 0.0316 µM
[20] = second compound 0.1 µM, first compound 0.1 µM
[21] = second compound 0.1 µM, first compound 0.316 µM
[22] = second compound 0.1 µM, first compound 1 µM
[23] = second compound 0.1 µM, first compound 3.16 µM
[24] = second compound 0.1 µM, first compound 10 µM
[25] = second compound 0.316 µM, first compound 0.0316 µM
[26] = second compound 0.316 µM, first compound 0.1 µM
[27] = second compound 0.316 µM, first compound 0.316 µM
[28] = second compound 0.316 µM, first compound 1 µM
[29] = second compound 0.316 µM, first compound 3.16 µM
[30] = second compound 0.316 µM, first compound 10 µM
[31] = second compound 1 µM, first compound 0.0316 µM
[32] = second compound 1 µM, first compound 0.1 µM
[33] = second compound 1 µM, first compound 0.316 µM
[34] = second compound 1 µM, first compound 1 µM
[35] = second compound 1 µM, first compound 3.16 µM
[36] = second compound 1 µM, first compound 10 µM
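Also: viability read after seven days of drug exposure.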
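For viability, T/C in this document: 100% = DMSO vehicle control viability.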

With `CC1(O)CCCC1n1c(=O)c(C(F)F)cc2cnc(NC3CCN(S(C)(=O)=O)CC3)nc21` (stereo unspecified) + C=CC(=O)N1CCN(c2nc(OCC3CCCN3C)nc3c(F)c(-c4nc(N)cc(C)c4C(F)(F)F)c(Cl)cc23)C(C)C1 the IC50 (second compound 0.00316 µM) was > 10 µM, the IC50 (second compound 0.01 µM) was > 10 µM and the IC50 (second compound 0.0316 µM) was > 10 µM. The IC50 (second compound 0.1 µM) was > 10 µM, the IC50 (second compound 0.316 µM) was > 10 µM and the IC50 (second compound 1 µM) was 8.82 µM. For the same molecule, the viability, T/C [1] was 95.4%, the viability, T/C [2] was 93.5% and the viability, T/C [3] was 101%. For the same molecule, the viability, T/C [4] was 111%, the viability, T/C [5] was 116% and the viability, T/C [6] was 59.6%. It also gave a viability, T/C [7] of 109%, a viability, T/C [8] of 91.8% and a viability, T/C [9] of 104%. It also gave a viability, T/C [10] of 109%, a viability, T/C [11] of 124% and a viability, T/C [12] of 58.1%. It also gave a viability, T/C [13] of 99.5%, a viability, T/C [14] of 96% and a viability, T/C [15] of 107%. The viability, T/C [16] was 110%, the viability, T/C [17] was 122% and the viability, T/C [18] was 57.6%. For the same molecule, the viability, T/C [19] was 94.4%, the viability, T/C [20] was 95.3% and the viability, T/C [21] was 107%. The viability, T/C [22] was 112%, the viability, T/C [23] was 126% and the viability, T/C [24] was 56.4%. The viability, T/C [25] was 99.6%, the viability, T/C [26] was 102% and the viability, T/C [27] was 97.5%. It also gave a viability, T/C [28] of 120%, a viability, T/C [29] of 124% and a viability, T/C [30] of 60.3%. For the same molecule, the viability, T/C [31] was 97.5%, the viability, T/C [32] was 94.5% and the viability, T/C [33] was 101%. It also gave a viability, T/C [34] of 118%, a viability, T/C [35] of 120% and a viability, T/C [36] of 43.1%.
Molecule `CCC(CC)c1cc(NC2CCC(N)C2)n2nccc2n1` (stereo unspecified) + C=CC(=O)N1CCN(c2nc(OCC3CCCN3C)nc3c(F)c(-c4nc(N)cc(C)c4C(F)(F)F)c(Cl)cc23)C(C)C1 has an IC50 (second compound 0.00316 µM) of 1.92 µM, an IC50 (second compound 0.01 µM) of 2.07 µM and an IC50 (second compound 0.0316 µM) of 1.95 µM. The IC50 (second compound 0.1 µM) was 1.87 µM, the IC50 (second compound 0.316 µM) was 1.95 µM and the IC50 (second compound 1 µM) was 1.8 µM. For the same molecule, the viability, T/C [1] was 93.3%, the viability, T/C [2] was 94.8% and the viability, T/C [3] was 109%. It also gave a viability, T/C [4] of 106%, a viability, T/C [5] of 9.52% and a viability, T/C [6] of 12.3%. The viability, T/C [7] was 105%, the viability, T/C [8] was 96.1% and the viability, T/C [9] was 119%. It also gave a viability, T/C [10] of 116%, a viability, T/C [11] of 15.3% and a viability, T/C [12] of 11.1%. The viability, T/C [13] was 105%, the viability, T/C [14] was 99.4% and the viability, T/C [15] was 105%. The viability, T/C [16] was 101%, the viability, T/C [17] was 13% and the viability, T/C [18] was 11.9%. The viability, T/C [19] was 100%, the viability, T/C [20] was 98.2% and the viability, T/C [21] was 116%. It also gave a viability, T/C [22] of 94.4%, a viability, T/C [23] of 13.1% and a viability, T/C [24] of 12.1%. For the same molecule, the viability, T/C [25] was 89.4%, the viability, T/C [26] was 95.8% and the viability, T/C [27] was 105%. It also gave a viability, T/C [28] of 111%, a viability, T/C [29] of 12.4% and a viability, T/C [30] of 14.7%. For the same molecule, the viability, T/C [31] was 89.9%, the viability, T/C [32] was 97.2% and the viability, T/C [33] was 105%. The viability, T/C [34] was 90.9%, the viability, T/C [35] was 7.42% and the viability, T/C [36] was 13.8%.
With `Cc1nc(N2CCC3(CC2)COC(C)C3N)c(CO)nc1Sc1ccnc(N)c1Cl` (stereo unspecified) + C=CC(=O)N1CCN(c2nc(OCC3CCCN3C)nc3c(F)c(-c4nc(N)cc(C)c4C(F)(F)F)c(Cl)cc23)C(C)C1 the IC50 (second compound 0.00316 µM) was > 10 µM, the IC50 (second compound 0.01 µM) was > 10 µM and the IC50 (second compound 0.0316 µM) was > 10 µM. For the same molecule, the IC50 (second compound 0.1 µM) was > 10 µM, the IC50 (second compound 0.316 µM) was > 10 µM and the IC50 (second compound 1 µM) was 9.77 µM. For the same molecule, the viability, T/C [1] was 87%, the viability, T/C [2] was 80.8% and the viability, T/C [3] was 70.6%. The viability, T/C [4] was 71%, the viability, T/C [5] was 64.5% and the viability, T/C [6] was 59.6%. For the same molecule, the viability, T/C [7] was 91.6%, the viability, T/C [8] was 78.9% and the viability, T/C [9] was 71.9%. It also gave a viability, T/C [10] of 68.7%, a viability, T/C [11] of 64.5% and a viability, T/C [12] of 51.9%. It also gave a viability, T/C [13] of 88.8%, a viability, T/C [14] of 79% and a viability, T/C [15] of 71.8%. It also gave a viability, T/C [16] of 67.6%, a viability, T/C [17] of 63% and a viability, T/C [18] of 54.9%. For the same molecule, the viability, T/C [19] was 85.1%, the viability, T/C [20] was 78.7% and the viability, T/C [21] was 78.6%. For the same molecule, the viability, T/C [22] was 67.5%, the viability, T/C [23] was 65.2% and the viability, T/C [24] was 57.7%. For the same molecule, the viability, T/C [25] was 81.1%, the viability, T/C [26] was 81.4% and the viability, T/C [27] was 75.4%. The viability, T/C [28] was 68.6%, the viability, T/C [29] was 65.3% and the viability, T/C [30] was 55.4%. It also gave a viability, T/C [31] of 86.8%, a viability, T/C [32] of 80.3% and a viability, T/C [33] of 68.6%. The viability, T/C [34] was 59.9%, the viability, T/C [35] was 60.5% and the viability, T/C [36] was 47.5%.
